pIC50, pKi: −log10 of the molar value.
Legend:
[1] = biological target: Tyrosine-protein kinase Fyn (Homo sapiens, UniProt P06241); experiment: biochemical; type: cell-based, Insect cells; details: for IC50 / Ki: insect cells; for pIC50: read-out: IC50;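 as to all read-outs here: enzymatic inhibition of Fyn kinase activity measured with Poly(Glu:Tyr) as the phosphorylation substrate; in other assays of this panel Not Active means under 50% inhibition at 10 µM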
[2] = biological target: T1, C-X-C chemokine receptor type 1 (Homo sapiens, UniProt P25024); also: in other assays of this panel Not Active means under 50% inhibition at 10 µM
T1 sequence (P25024 whole entry): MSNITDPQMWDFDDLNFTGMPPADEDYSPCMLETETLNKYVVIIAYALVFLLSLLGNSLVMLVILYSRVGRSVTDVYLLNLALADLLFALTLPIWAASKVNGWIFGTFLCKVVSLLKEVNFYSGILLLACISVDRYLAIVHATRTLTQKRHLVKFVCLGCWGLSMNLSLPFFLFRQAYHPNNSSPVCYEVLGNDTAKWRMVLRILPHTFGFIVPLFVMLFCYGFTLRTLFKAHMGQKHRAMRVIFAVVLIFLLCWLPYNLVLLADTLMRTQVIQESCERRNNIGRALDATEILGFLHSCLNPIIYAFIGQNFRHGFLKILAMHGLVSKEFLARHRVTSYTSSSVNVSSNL

[3] = biological target: 5-hydroxytryptamine receptor 2B (Homo sapiens, UniProt P41595); type: cell membranes, CHO-K1, Membrane; details: for IC50 / Ki: cho-k1; for pIC50: read-out: IC50; for pKi: read-out: Ki; as to all read-outs here: in other assays of this panel Not Active means under 50% inhibition at 10 µM
Sequence of 5-hydroxytryptamine receptor 2B (P41595 whole entry): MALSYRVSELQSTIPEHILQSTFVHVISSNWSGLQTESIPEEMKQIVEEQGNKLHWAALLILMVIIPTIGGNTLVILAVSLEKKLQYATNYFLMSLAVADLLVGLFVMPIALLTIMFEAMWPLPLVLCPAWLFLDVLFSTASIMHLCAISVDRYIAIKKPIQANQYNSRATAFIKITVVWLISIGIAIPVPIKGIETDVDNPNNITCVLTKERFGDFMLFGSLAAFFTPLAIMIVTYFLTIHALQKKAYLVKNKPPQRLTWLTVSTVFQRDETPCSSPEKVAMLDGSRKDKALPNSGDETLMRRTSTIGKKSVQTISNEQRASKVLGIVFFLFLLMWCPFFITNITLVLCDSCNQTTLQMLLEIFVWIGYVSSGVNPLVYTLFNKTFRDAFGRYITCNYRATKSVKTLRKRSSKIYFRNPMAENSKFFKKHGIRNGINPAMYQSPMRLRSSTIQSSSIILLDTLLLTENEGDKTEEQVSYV

[4] = DRUGMATRIX: Phosphodiesterase PDE4 enzyme inhibition (substrate: [3H]cAMP + cAMP); details: u-937; Not Active = under 50% inhibition at 10 µM
[5] = biological target: Aldo-keto reductase family 1 member B1 (Rattus norvegicus, UniProt P07943); type: tissue-based, Lens of camera-type eye;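 also: inhibition of aldose reductase enzyme activity, measured with DL-glyceraldehyde as the substrate; in other assays of this panel Not Active means under 50% inhibition at 10 µM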
[6] = biological target: Acetylcholinesterase (Homo sapiens, UniProt P22303); experiment: DRUGMATRIX: Acetylcholinesterase enzyme inhibition (substrate: acetylthiocholine); type: cell-based, HEK293; details: Not Active = under 50% inhibition at 10 µM; for IC50 / Ki: hek293
Sequence of Acetylcholinesterase (P22303 whole entry): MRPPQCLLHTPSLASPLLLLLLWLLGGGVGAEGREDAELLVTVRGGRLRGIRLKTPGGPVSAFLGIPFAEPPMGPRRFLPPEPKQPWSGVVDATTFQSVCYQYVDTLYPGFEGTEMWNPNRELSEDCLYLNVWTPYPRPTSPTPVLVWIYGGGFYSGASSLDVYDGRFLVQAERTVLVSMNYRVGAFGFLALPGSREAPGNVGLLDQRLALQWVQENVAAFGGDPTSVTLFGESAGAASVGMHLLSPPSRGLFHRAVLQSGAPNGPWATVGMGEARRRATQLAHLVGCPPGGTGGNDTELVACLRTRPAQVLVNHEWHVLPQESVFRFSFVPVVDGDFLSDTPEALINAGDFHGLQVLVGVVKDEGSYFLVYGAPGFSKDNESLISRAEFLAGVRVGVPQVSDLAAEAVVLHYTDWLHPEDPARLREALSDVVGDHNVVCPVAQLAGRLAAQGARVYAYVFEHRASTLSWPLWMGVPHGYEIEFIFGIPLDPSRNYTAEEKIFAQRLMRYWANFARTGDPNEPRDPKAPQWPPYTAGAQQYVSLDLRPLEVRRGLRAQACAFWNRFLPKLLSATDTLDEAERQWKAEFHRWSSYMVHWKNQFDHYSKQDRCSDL

Sequence of Tyrosine-protein kinase Fyn (P06241 whole entry): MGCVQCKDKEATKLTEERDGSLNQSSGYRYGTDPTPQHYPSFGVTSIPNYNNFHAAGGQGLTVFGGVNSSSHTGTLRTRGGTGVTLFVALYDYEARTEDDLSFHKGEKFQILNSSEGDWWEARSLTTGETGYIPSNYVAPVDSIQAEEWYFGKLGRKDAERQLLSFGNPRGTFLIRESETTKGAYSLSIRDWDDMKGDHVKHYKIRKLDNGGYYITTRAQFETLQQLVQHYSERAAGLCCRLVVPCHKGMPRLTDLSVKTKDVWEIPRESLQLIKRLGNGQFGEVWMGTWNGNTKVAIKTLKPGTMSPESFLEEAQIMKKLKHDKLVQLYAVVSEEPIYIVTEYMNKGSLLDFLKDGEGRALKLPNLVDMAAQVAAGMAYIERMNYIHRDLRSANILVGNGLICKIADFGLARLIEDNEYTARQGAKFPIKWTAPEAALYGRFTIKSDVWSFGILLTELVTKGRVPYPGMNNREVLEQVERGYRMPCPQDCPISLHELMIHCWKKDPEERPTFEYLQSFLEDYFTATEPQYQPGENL

Row | Compound | IC50 [1] | IC50 [2] | IC50 [3] | IC50 [4] | Ki [4] | IC50 [5] | IC50 [6] | pIC50 [3] | pKi [3] | Ki [1] | Ki [2] | Ki [3] | Ki [5] | Ki [6] | pIC50 [1] | pIC50 ([6]; read-out: IC50)
1 | O=C(Oc1ccccc1C(=O)O)c1ccccc1O [SALSALATE] | Not Active | Not Active | Not Active | Not Active | Not Active | Not Active | Not Active | – | – | – | – | – | – | – | – | –
2 | CNC1(c2ccccc2Cl)CCCCC1=O (centres undefined) [KETAMINE] | Not Active | Not Active | Not Active | Not Active | Not Active | Not Active | Not Active | – | – | – | – | – | – | – | – | –
3 | Fc1ccc(C(c2ccc(F)cc2)N2CCN(C/C=C/c3ccccc3)CC2)cc1 [FLUNARIZINE] | Not Active | Not Active | – | – | – | Not Active | Not Active | – | – | – | – | – | – | – | – | –
4 | CN[C@H]1CC[C@@H](c2ccc(Cl)c(Cl)c2)c2ccccc21 [SERTRALINE] | Not Active | Not Active | – | – | – | Not Active | Not Active | 5.47 | 5.67 | – | – | – | – | – | – | –
5 | O=C(Nc1ccc(Br)cc1)c1cc(Br)cc(Br)c1O [TRIBROMSALAN] | Not Active | Not Active | Not Active | Not Active | Not Active | Not Active | Not Active | – | – | – | – | – | – | – | – | –
6 | CC(C)NCC(O)c1ccc(O)c(O)c1 (centres undefined) [ISOPROTERENOL] | Not Active | Not Active | Not Active | Not Active | Not Active | Not Active | Not Active | – | – | – | – | – | – | – | – | –
7 | Cc1cccc(C)c1OCC(C)N (centres undefined) [MEXILETINE] | Not Active | Not Active | – | Not Active | Not Active | Not Active | Not Active | 5.94 | 6.14 | – | – | – | – | – | – | –
8 | MANGANESE CHLORIDE ANHYDROUS | Not Active | Not Active | Not Active | Not Active | Not Active | Not Active | Not Active | – | – | Not Active | Not Active | Not Active | Not Active | Not Active | – | –
9 | CCN(CC)CCNC(=O)c1cc(S(C)(=O)=O)ccc1OC [TIAPRIDE] | Not Active | Not Active | Not Active | Not Active | Not Active | Not Active | Not Active | – | – | – | – | – | – | – | – | –
10 | Clc1ccc(COC(Cn2ccnc2)c2ccc(Cl)cc2Cl)cc1 (centres undefined) [ECONAZOLE] | – | Not Active | – | – | – | Not Active | – | – | – | – | – | – | – | – | 4.92 | 4.86
11 | COc1c2occc2cc2ccc(=O)oc12 [METHOXSALEN] | Not Active | Not Active | Not Active | Not Active | Not Active | Not Active | Not Active | – | – | – | – | – | – | – | – | –
12 | O.O.O.O.O.O.[Cl-].[Cl-].[Sr+2] [STRONTIUM CHLORIDE HEXAHYDRATE] | Not Active | Not Active | Not Active | Not Active | Not Active | Not Active | Not Active | – | – | – | – | – | – | – | – | –
13 | COc1ccc(CCN(C)CCCC(C#N)(c2ccc(OC)c(OC)c2)C(C)C)cc1OC (centres undefined) | Not Active | Not Active | – | Not Active | Not Active | Not Active | Not Active | – | – | – | – | – | – | – | – | –
14 | CCN(CC)CCOc1ccc(/C(=C(/Cl)c2ccccc2)c2ccccc2)cc1 [ENCLOMIPHENE] | – | Not Active | – | – | – | Not Active | Not Active | – | – | – | – | – | – | – | 5.60 | –
15 | Clc1ccccc1CN1CCc2sccc2C1 [TICLOPIDINE] | Not Active | Not Active | Not Active | Not Active | Not Active | Not Active | Not Active | – | – | – | – | – | – | – | – | –
16 | CC(C)Oc1ccc2c(=O)c(-c3ccccc3)coc2c1 [IPRIFLAVONE] | Not Active | Not Active | Not Active | Not Active | Not Active | Not Active | Not Active | – | – | – | – | – | – | – | – | –
17 | COc1cc2nc(N3CCN(C(=O)C4CCCO4)CC3)nc(N)c2cc1OC (centres undefined) [TERAZOSIN] | Not Active | Not Active | Not Active | Not Active | Not Active | Not Active | Not Active | – | – | – | – | – | – | – | – | –
18 | C[C@H]1C[C@@H]2[C@H]([C@@H](O)C[C@@]3(C)[C@H]2CC[C@]3(O)C(=O)CO)[C@@]2(C)C=CC(=O)C=C12 [METHYLPREDNISOLONE] | Not Active | Not Active | Not Active | Not Active | Not Active | Not Active | Not Active | – | – | – | – | – | – | – | – | –

Row | Compound | IC50 [1] | IC50 [2] | IC50 [3] | IC50 [4] | Ki [4] | IC50 [5] | IC50 [6] | pIC50 [3] | pKi [3] | Ki [1] | Ki [2] | Ki [3] | Ki [5] | Ki [6] | pIC50 [1] | pIC50 ([6]; read-out: IC50)
19 | NC1CCN(c2nc3c(cc2F)c(=O)c(C(=O)O)cn3-c2ccc(F)cc2F)C1 (centres undefined) [TOSUFLOXACIN] | Not Active | Not Active | Not Active | Not Active | Not Active | Not Active | Not Active | – | – | – | – | – | – | – | – | –
20 | SODIUM ORTHOVANAD | Not Active | Not Active | Not Active | Not Active | Not Active | Not Active | Not Active | – | – | Not Active | Not Active | Not Active | Not Active | Not Active | – | –
21 | Cc1c(C)c2c(c(C)c1O)CCC(C)(CN1CCN(c3cc(N4CCCC4)nc(N4CCCC4)n3)CC1)O2 (centres undefined) | – | Not Active | – | Not Active | Not Active | Not Active | Not Active | 6.28 | 6.48 | – | – | – | – | – | 5.78 | –
22 | O=C(O)c1cn(-c2ccc(F)cc2)c2cc(N3CCNCC3)c(F)cc2c1=O [SARAFLOXACIN] | Not Active | Not Active | Not Active | Not Active | Not Active | Not Active | Not Active | – | – | – | – | – | – | – | – | –
23 | Nc1cc(N2CCCCC2)nc(N)[n+]1[O-] [MINOXIDIL] | Not Active | Not Active | Not Active | Not Active | Not Active | Not Active | Not Active | – | – | – | – | – | – | – | – | –
24 | CC(C)NCC(O)c1ccc(NS(C)(=O)=O)cc1 (centres undefined) [SOTALOL] | Not Active | Not Active | Not Active | Not Active | Not Active | Not Active | Not Active | – | – | – | – | – | – | – | – | –
25 | CS(=O)(=O)c1ccc([C@@H](O)[C@@H](CO)NC(=O)C(Cl)Cl)cc1 [THIAMPHENICOL] | Not Active | Not Active | Not Active | Not Active | Not Active | Not Active | Not Active | – | – | – | – | – | – | – | – | –
26 | CN(C)CCOC(c1ccccc1)c1ccccc1 [DIPHENHYDRAMINE] | Not Active | Not Active | – | – | – | Not Active | Not Active | – | – | – | – | – | – | – | – | –
27 | CCN1CCC[C@H]1CNC(=O)c1cc(S(N)(=O)=O)ccc1OC [LEVOSULPIRIDE] | Not Active | Not Active | Not Active | Not Active | Not Active | Not Active | Not Active | – | – | – | – | – | – | – | – | –
28 | CCN(CC)CC(=O)Nc1c(C)cccc1C [LIDOCAINE] | Not Active | Not Active | Not Active | Not Active | Not Active | Not Active | Not Active | – | – | – | – | – | – | – | – | –
29 | CC(c1cc2ccccc2s1)N(O)C(N)=O (centres undefined) [ZILEUTON] | Not Active | Not Active | Not Active | Not Active | Not Active | Not Active | Not Active | – | – | – | – | – | – | – | – | –
30 | CCCCNc1ccc(C(=O)OCCN(C)C)cc1 [TETRACAINE] | Not Active | Not Active | – | Not Active | Not Active | Not Active | Not Active | – | – | – | – | Not Active | – | – | – | –
31 | CNCCC(Oc1ccc(C(F)(F)F)cc1)c1ccccc1 (centres undefined) [FLUOXETINE] | Not Active | Not Active | Not Active | – | – | Not Active | Not Active | – | – | – | – | – | – | – | – | –
32 | CC[C@@H](C(=O)[C@@H](C)[C@@H](O)[C@H](C)[C@@H]1O[C@@H]([C@@H](CC)C(=O)O)CC[C@@H]1C)[C@H]1O[C@]2(C=C[C@@H](O)[C@]3(CC[C@@](C)([C@H]4CC[C@](O)(CC)[C@H](C)O4)O3)O2)[C@H](C)C[C@@H]1C [SALINOMYCIN] | Not Active | Not Active | Not Active | Not Active | Not Active | Not Active | Not Active | – | – | – | – | – | – | – | – | –
33 | Cc1ccc(NC(=O)c2ccc(CN3CCN(C)CC3)cc2)cc1Nc1nccc(-c2cccnc2)n1 [IMATINIB] | – | Not Active | Not Active | – | – | Not Active | Not Active | – | – | – | – | – | – | – | – | –
34 | CO[C@@H]1[C@@H](OC)[C@H](C)[C@@](O)(CC(=O)O)O[C@H]1[C@H](C)[C@H]1O[C@@]2(CC[C@@](C)([C@H]3CC[C@@](C)([C@@H]4O[C@@H]([C@H]5O[C@](C)(O)[C@H](C)C[C@@H]5C)C[C@@H]4O[C@@H]4C[C@H](OC)[C@@H](OC)[C@H](C)O4)O3)O2)C[C@H](O)[C@H]1C [MADURAMICIN ACID] | Not Active | Not Active | – | Not Active | Not Active | Not Active | Not Active | 7.48 | 7.68 | – | – | – | – | – | – | –
35 | CC(C)Cc1ccc([C@@H](C)C(=O)O)cc1 [(R)-IBUPROPHEN] | Not Active | Not Active | Not Active | Not Active | Not Active | Not Active | Not Active | – | – | – | – | – | – | – | – | –

From ChEMBL document CHEMBL1909046, “DrugMatrix in vitro pharmacology data”
